Patent publication US20080003438A1, “Heterocyclic siloxanes for use in biocidal coatings and materials” (Auburn University, priority 2002, published 2008)

Columns and labels:
[1] = Chlorine loading of coated, chlorinated surfaces by iodometric/thiosulfate titration; assay type: physicochemical; details: for chlorine content of charged textile: oven-cured; for chlorine loading on coated cotton swatches: chlorinated with 5% CLOROX at ambient temperature for 45 minutes
Description: Swatches of Style 400 Bleached 100% Cotton Print Cloth (Testfabrics, Inc.) were treated with 3-triethoxysilylpropyl-5,5-dimethylhydantoin, prepared as described in Example 1, in the following manner. A treatment bath was prepared containing 5.0 g of 3-triethoxysilylpropyl-5,5-dimethylhydantoin, 3.0 g of potassium thiocyanate, 50 mL of ethanol, and 50 mL of water. After 1 hour of equilibration of the bath mixture, the cotton swatches were soaked in the bath for 10 min. After partially drying in air at ambient temperature, the swatches were cured for 1 hour at 95° C. The swatches were then soaked in a 0.5% liquid detergent solution for 15 min, rinsed with tap water, and allowed to dry in air at ambient temperature. […] The swatches were stored in a vacuum desiccator until use.
The siloxane polymer described above was coated onto 100% cotton fabric. This was accomplished by soaking swatches of the material for about 2 minutes at ambient temperature in a bath containing 5 g of the polysiloxane, 70 mL of ethanol, and 40 mL of water. The swatches were cured at 130° C. in air for 20 minutes, then soaked in 1.5% liquid detergent for 15 minutes at ambient temperature, and then rinsed thoroughly with water. […] An iodometric/thiosulfate titration indicated a chlorine loading on the cotton material of about 0.42%.
Finally, a wash test was performed on swatches of cotton containing the monomer 3-triethoxysilylpropyl-5,5-dimethylhydantoin coating and the polysiloxane coating, each chlorinated and unchlorinated, for comparison purposes. Two treatment baths were prepared, one containing an 8% solution of 3-triethoxysilylpropyl-5,5-dimethylhydantoin in a 50% solution of ethanol in water, the other containing an 8% solution of siloxane polymer prepared as described above in a 66.7% solution of ethanol in water. Identical cotton swatches were soaked in the two baths for 2.5 minutes at ambient temperature, cured in air at 130° C. for 20 minutes, soaked in 1.5% liquid detergent at ambient temperature for 15 minutes, rinsed thoroughly with water, and dried in air at 50° C. for 30 minutes. Then one-half of the swatches of each type were chlorinated by soaking them in 5% CLOROX at ambient temperature for 45 minutes. These chlorinated samples were rinsed thoroughly with water and dried in air at 50° C. for 30 minutes to remove all occluded free chlorine. Iodometric/thiosulfate titrations were performed on representative samples to determine initial chlorine loadings. The average chlorine loading for the silane monomer-coated samples was 0.61%; for the siloxane polymer-coated samples, the average chlorine loading was 0.40%. Then all types of coated swatches were subjected to laundry washing cycles using AATCC Test Method 61 (Test 2A Procedure). Samples were evaluated after 5, 10, and 50 washing cycles for retention of the coatings. Those samples not chlorinated before washing were chlorinated by the procedure described above in order to assess how much chlorine could be loaded after variable numbers of washing cycles. Those chlorinated before washing were divided into two groups with half being assessed for chlorine loading without rechlorination, the other half being rechlorinated and then assessed for chlorine loading. Three observations are clearly evident from the data in Table 3. First, both the silane and the siloxane coatings are partially lost upon successive washings. Second, prechlorination reduces the rate of loss, probably due to increasing the hydrophobicity of the surface, thus reducing the rate of hydrolysis loss of the siloxane coatings. Third, the siloxane coating, which is not chlorinated to as high a level as the silane one upon initial chlorination, is lost at a slower rate than is the silane coating. For all of the coatings, at least partial biocidal efficacy would be regenerated upon rechlorination after 50 washing cycles. […]

Staphylococcus aureus = experiment: Antimicrobial activity of cotton textiles coated with acyclic silane; assay type: cell-based
Description: Cotton textiles were coated with 3-aminopropyltriethoxysilane by exposure to aqueous solutions of 5% of this compound, followed by curing the woven fabric at 100° C. for 60 minutes in air, or by use of a household dryer on high setting for 30 minutes. Swatches of the treated fabric were charged with chlorine, and then challenged with suspensions of Staphylococcus aureus; enumeration of recovery was accomplished using the methods described in Example 11. Chlorine contents of charged oven-cured textiles ranged up to 5000 ppm (5 mg per g of material) immediately after drying, but diminished to 2300 ppm in approximately 14 days at 20° C. Chlorine concentrations in dryer-prepared swatches were never higher than 2500 ppm, even when fresh. Reductions of viable organisms in freshly chlorinated oven-dried swatches were in excess of 4 logs, after as little as 15 minutes of contact. Longer contact times (30 minutes) were required to reach this level of efficacy in dryer-cured textiles.

[2] = system: S. aureus bacteria (ATCC 6538); experiment: Biocidal efficacy of chlorinated silane compound in water solution; assay type: cell-based; details: 100.8 mg/L solution, 11.02 mg/L total chlorine, chlorine-demand-free water pH 7, all contact times 5, 10, 30, 60 min, ambient temperature
Description: A 100.8 mg/L solution of the chlorinated silane compound, prepared as described above, containing 11.02 mg/L total chlorine content in chlorine-demand-free water at pH 7 was challenged with S. aureus bacteria (ATCC 6538) for contact times of 5, 10, 30, and 60 min at ambient temperature. Following the contact with the bacteria, further disinfectant action was quenched by adding 0.02 N sodium thiosulfate. Serial dilutions were then plated onto trypticase soy agar, and colony counts were made after 48 hours of incubation at 37° C. No growth was detected on the plates indicating a complete inactivation (>4.9 logs) at all of the contact times. Thus the chlorinated silane compound is biocidal under the conditions tested. Neither lower contact times, nor lower concentrations, were evaluated.

S. aureus (ATCC 6538) = experiment: Challenge of treated cotton swatches, modified AATCC Method 100; assay type: cell-based; details: treated cotton swatches, at 30 minutes
Description: (§1) Treated cotton swatches were challenged with S. aureus (ATCC 6538) and Escherichia coli (ATCC 2666) at a concentration of between 10^8 and 10^9 CFU/mL in pH 7 phosphate buffer solution using a modified version of AATCC Method 100. The swatches were quenched with 0.02 N sodium thiosulfate solution at contact times of 10, 30, 60, and 120 min. Serial dilutions of the solutions contacting the swatches were plated on nutrient agar, incubated for 48 hours at 37° C., and plate counts were made to determine the presence of viable bacteria. […] The control sample (cotton soaked in 10% bleach, rinsed, and dried) gave only a 0.4 log reduction at 30 minutes. […] The control sample (cotton soaked in 10% bleach, rinsed, and dried) gave a 0 log reduction at 120 minutes.

[3] = system: Escherichia coli (ATCC 2666); experiment: as above; assay type: cell-based; details: contact time interval 60-120 minutes
Description: as §1

With CCO[Si](CCCNCCN1C(=O)NC(C)(C)C1=O)(OCC)OCC.Cl [3-[2′-(3′-triethoxysilylpropyl)aminoethyl]-5,5-dimethylhydantoin hydrochloride] the chlorine loading ([1]; cotton swatches, 5% CLOROX 5 minutes) was 0.44% and the chlorine loading ([1]; sand (Ottawa Sand Standard, 20-30 mesh), 50% CLOROX 15 minutes) was 0.11%.

For CCO[Si](CCCN)(OCC)OCC [3-aminopropyltriethoxysilane], the “chlorine concentration of charged textile” value ([1]; cotton, dryer-prepared swatches, even when fresh) was at most 2500 ppm, the “chlorine content of charged textile” value ([1]; cotton, after approximately 14 days at 20° C.) was 2300 ppm and the “chlorine content of charged textile” value ([1]; cotton, immediately after drying) was “up to 5000 ppm”. For the same compound, the “contact time required to reach in excess of 4 logs reduction” value (Staphylococcus aureus; dryer-cured cotton textiles) was 30 minutes and the “reduction of viable organisms” value (Staphylococcus aureus; freshly chlorinated oven-dried cotton swatches, 15 minutes of contact) was over 4 logs.

For CCO[Si](C)(CCCN1C(=O)NC(C)(C)C1=O)OCC [3-diethoxymethylsilylpropyl-5,5-dimethylhydantoin], the “chlorine loading on coated cotton swatches” value ([1]; cotton) was 0.733%.

In the case of CCO[Si](CCCN1C(=O)C(C)(C)NC1(C)C)(OCC)OCC [3-triethoxysilylpropyl-2,2,5,5-tetramethylimidazolidin-4-one], the “chlorine loading on coated cotton swatches” value ([1]; cotton) is reported as 0.114%.

In the case of CO[Si](CCCN1C(=O)N(Cl)C(C)(C)C1=O)(OC)OC [chlorinated silane compound, 1-chloro-3-trimethoxysilylpropyl-5,5-dimethylhydantoin], the “complete inactivation of S. aureus” value [2] is reported as over 4.9 logs.

With CCCCCCCCCCCCCCCCCC[N+](C)(C)CCC[Si](OC)(OC)OC.[Cl-] [quaternary ammonium salt, dimethyloctadecyltrimethoxysilylpropylammonium chloride, reference compound] the “log reduction of S. aureus” value (S. aureus (ATCC 6538)) was 1.8 log and the “log reduction of E. coli” value [3] was 2.5 logs.
